{
  "source": "patent US20210275545A1",
  "about": "“METHOD OF TREATING CANCER PREFERABLY CHARACTERIZED BY EXPRESSION OF A FUSION PROTEIN COMPRISING A MEMBER OF THE E-TWENTY-SIX FAMILY BY ADMINISTERING AN AGENT THAT INHIBITS THE SYNTHESIS AND/OR ACTIVITY OF CORTISOL” (Yeda Research and Development Co. Ltd., priority 2018, published 2021)",
  "key": {"[1]": {"tested_on": "glucocorticoid response element (GRE)", "settings": "naïve cells, endogenous GR; 100 nM, 24 hours", "protocol": "HEK-293T cells (1.2×10^4) were seeded in 48-well plates. […] In addition, cells were co-transfected with increasing amounts of a GR expression vector (A), a FLI1-encoding vector (B) or with a combination of both a FLI1 vector and a vector encoding GR, either wild type (C) or a mutant receptor (GRdim−, panel D). Luciferase activity was determined, in biological triplicates, 48 hours later and presented in bar plots. Cells that were pre-transfected with the reporter plasmid were used for normalization. *, p≤0.05; ***, p≤0.001. […] This was followed by cell lysis and determination of luciferase activity in biological triplicates.\nLuciferase-reporter assays: Cells were co-transfected with a luciferase plasmid containing the consensus glucocorticoid response element (GRE) along with pGL3-Control (Promega, Madison, Wis.). Luciferase activity was determined using the dual-luciferase reporter assay system (Promega). Firefly luciferase luminescence values were normalized to Renilla luminescence."}, "[2]": {"molecular_target": "T1, GR and ERG (Homo sapiens, UniProt P04150)", "T1 sequence (P04150 whole entry, the tested form may be a part)": "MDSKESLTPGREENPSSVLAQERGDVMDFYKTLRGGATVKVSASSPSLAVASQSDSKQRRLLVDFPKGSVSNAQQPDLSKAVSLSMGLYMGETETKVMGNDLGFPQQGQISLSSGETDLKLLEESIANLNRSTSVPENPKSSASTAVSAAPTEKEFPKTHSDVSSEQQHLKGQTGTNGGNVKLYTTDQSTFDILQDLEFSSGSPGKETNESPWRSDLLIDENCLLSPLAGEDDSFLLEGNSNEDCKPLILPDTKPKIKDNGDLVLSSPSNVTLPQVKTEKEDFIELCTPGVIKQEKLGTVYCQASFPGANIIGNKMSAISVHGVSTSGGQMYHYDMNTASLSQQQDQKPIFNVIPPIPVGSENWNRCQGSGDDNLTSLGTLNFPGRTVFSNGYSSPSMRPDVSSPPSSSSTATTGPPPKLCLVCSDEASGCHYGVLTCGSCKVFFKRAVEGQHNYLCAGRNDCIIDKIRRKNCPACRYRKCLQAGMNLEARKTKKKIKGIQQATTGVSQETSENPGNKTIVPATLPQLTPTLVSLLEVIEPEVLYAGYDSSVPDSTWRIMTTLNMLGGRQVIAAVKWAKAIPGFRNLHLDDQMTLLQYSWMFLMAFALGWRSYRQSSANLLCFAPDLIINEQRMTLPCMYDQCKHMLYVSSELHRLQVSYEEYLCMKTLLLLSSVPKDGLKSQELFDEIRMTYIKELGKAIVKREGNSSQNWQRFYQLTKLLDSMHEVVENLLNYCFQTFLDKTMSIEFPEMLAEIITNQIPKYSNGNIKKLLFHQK", "experimental": "(§1) (A) The scheme presents the full length Gaussia luciferase protein, along with either the amino-terminal segment (Gluc1), which was fused to an ETS family transcription factor, or the carboxyl terminal segment (Gluc2), which was fused to GR. Amino acid numbers are indicated. cDNAs encoding most members of the ETS family (16 members altogether) were cloned downstream to Gluc1. […] (B) HEK-293T cells (6×10^3) were seeded in 96-well plates. On the next day, cells were transfected with combinations of the Gluc1 plasmid, encoding a fused ETS family member, and the Gluc2 plasmid encoding a fused full-length GR. […] Cells were then lysed and luminescence was determined in biological triplicates. […] (D and E) HEK-293T cells were seeded in 100-mm dishes. Once they reached sub-maximal density (70%), cells were starved overnight for serum factors. […] Cell extracts were then processed for co-immunoprecipitation assays, in which the endogenous FLI1 or ERG protein was immunoprecipitated using a specific antibody, and immunoblotting was performed using an antibody against GR. EB, empty beads; C, solvent control. Images shown are representative of three biological replicates.\nProximity ligation assay (PLA), extraction of cells, co-immunoprecipitation and cell migration/invasion assays: These assays were performed exactly as recently reported."}, "[3]": {"molecular_target": "T2, MR and ERG (Homo sapiens, UniProt P08235)", "T2 construct": "expressed in transfected cells; host or cells: HEK-293T", "T2 sequence (P08235 1-984)": "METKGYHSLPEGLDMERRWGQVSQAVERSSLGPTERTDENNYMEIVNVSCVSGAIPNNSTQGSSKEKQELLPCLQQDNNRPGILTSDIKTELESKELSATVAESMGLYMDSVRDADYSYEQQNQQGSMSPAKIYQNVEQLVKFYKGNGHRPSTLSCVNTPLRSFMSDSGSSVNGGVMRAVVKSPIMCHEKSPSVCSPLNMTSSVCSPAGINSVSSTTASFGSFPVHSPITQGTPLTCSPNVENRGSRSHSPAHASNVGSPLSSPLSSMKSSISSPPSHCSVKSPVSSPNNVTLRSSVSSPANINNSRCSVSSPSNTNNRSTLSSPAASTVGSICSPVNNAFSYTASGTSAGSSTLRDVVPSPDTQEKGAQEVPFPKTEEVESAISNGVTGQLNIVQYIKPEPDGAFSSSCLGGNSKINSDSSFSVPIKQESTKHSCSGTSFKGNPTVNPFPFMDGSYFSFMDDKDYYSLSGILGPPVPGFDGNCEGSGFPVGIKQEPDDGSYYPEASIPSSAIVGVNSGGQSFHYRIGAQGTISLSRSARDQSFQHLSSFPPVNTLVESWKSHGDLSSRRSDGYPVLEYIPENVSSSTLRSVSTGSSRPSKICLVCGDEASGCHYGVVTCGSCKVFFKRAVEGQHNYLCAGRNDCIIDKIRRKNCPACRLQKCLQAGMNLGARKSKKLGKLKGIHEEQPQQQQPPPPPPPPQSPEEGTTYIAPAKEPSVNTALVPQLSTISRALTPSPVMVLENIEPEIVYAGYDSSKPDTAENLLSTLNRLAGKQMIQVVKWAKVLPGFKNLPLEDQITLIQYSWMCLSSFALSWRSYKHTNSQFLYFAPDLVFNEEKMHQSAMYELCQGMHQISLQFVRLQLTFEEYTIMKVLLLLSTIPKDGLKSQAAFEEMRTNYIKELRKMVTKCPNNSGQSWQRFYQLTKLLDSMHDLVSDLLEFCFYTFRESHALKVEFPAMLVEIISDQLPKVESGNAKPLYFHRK", "T2 sequence (P11308 1-486 isoform P11308-3 partner)": "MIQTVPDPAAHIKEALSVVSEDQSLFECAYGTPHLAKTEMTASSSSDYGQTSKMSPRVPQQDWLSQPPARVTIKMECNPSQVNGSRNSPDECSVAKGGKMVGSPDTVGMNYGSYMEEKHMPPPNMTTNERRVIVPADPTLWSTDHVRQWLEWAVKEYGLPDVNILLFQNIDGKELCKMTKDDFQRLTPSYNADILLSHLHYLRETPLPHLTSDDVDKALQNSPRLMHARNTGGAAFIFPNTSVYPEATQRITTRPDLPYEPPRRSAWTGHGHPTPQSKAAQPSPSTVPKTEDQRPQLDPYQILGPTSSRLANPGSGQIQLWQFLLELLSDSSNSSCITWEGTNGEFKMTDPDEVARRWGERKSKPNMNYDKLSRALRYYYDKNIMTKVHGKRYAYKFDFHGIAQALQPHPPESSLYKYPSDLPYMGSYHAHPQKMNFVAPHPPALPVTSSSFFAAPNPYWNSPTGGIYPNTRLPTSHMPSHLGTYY", "assay": "PCA, Gluc1-ERG + MR-Gluc2", "type": "cell-based", "settings": "DEX 1 μM, 60 minutes", "experimental": "Cells were then lysed and luminescence was determined."}, "[4]": {"molecular_target": "T1, GR and ERG", "experimental": "as §1\n(A) HEK-293T cells (6×10^3) were seeded in 96-well plates. On the next day, the cells were transfected with combinations of the Gluc1 plasmid, encoding fused FLI1 or ERG, and the Gluc2 plasmid encoding GR. […] Cells were then lysed and luminescence was determined in each sample. Luminescence of vehicle-treated cells was used for normalization. […] (B) HEK-293T cells were seeded on coverslips in 6-well plates. […] Images were processed using the Zeiss ZEN2011 software. […] Bars, 20 μm.\nProtein-fragment complementation assays (PCA): PCA was performed as previously described.", "remark": "listed apart in the source"}, "[5]": {"tested_on": "A673 xenograft", "assay": "A673 xenograft tumor growth", "type": "in vivo, SCID mice", "settings": "25 mg/kg daily", "excerpt": "FIGS. 6A-E. A GR antagonist and a cortisol-lowering drug impede growth of human xenograft models of Ewing's sarcoma. (A) RD-ES cells (2×10^6) were implanted subcutaneously in the right flank of SCID mice. […] The means of tumor volumes (+SEM) are shown. […] (B) Shown are representative images of immunofluorescent staining for KI67 in paraffin-embedded sections of tumors from A, using an antibody against KI67. Scale bars, 100 μm. Also shown is the scatter plot depicting quantification of KI67 staining in randomly selected 4 fields of a representative tumor from each group. […] (C and D) A673 cells (2×10^6) were implanted in female SCID mice. […] Each group was daily treated with either vehicle, or Metyrapone (25 mg/kg) and tumorigenic growth was monitored. Actual tumor volumes (±SEM) are presented. Also shown are tumors harvested from each group of animals; **p<0.001. (E) TC-71 cells (10^6) engineered to stably express luciferase were injected into the tibia of female SCID mice (5 weeks old; 7 mice per group). […] The control group was similarly treated with the solvent (0.1% tween 80). When the primary tumor reached 10% of body weight, the lungs were excised and examined for metastasis using luciferase bioluminescence imaging. […] Luminescence was quantified and presented in a bar graph. […] Tumor growth was monitored once every 3 days using a caliper. […]"}, "[6]": {"tested_on": "A673 tumors", "assay": "Immunoblotting of A673 tumor extracts", "type": "in vivo, SCID mice", "experimental": "FIGS. 13A-B: A GR antagonist and a cortisol-lowering drug induce markers of cell death in animal models of Ewing's sarcoma. (A) RD-ES tumors presented in FIG. 6A were extracted and analyzed using immunoblotting and the indicated antibodies. Note that tumors from three different mice per group were analyzed. (B) Whole extracts prepared from the tumors presented in FIG. 6D were analyzed using immunoblotting and the indicated antibodies. Note that tumors from three different mice per group were analyzed.\nES animal model studies: All animal experiments were approved by the Weizmann Institute's Animal Care and Use Committee. RD-ES cells and A673 cells (2.5×10^6) were inoculated subcutaneously in the right legs of female SCID mice (6 weeks old). Tumor growth was monitored once every 3 days using a caliper. […] Mice were euthanized when tumor size reached 800-900 mm^3. For metastasis assays, luciferase-labeled TC-71 cells (10^6) were injected orthotopically into the tibia of female SCID mice. Once the primary tumor reached the allowed size limit, we excised the lungs and examined metastases using luciferase bioluminescence imaging."}},
  "data": [
    {"compound": "C[C@@H]1C[C@H]2[C@@H]3CCC4=CC(=O)C=C[C@]4(C)[C@@]3(F)[C@@H](O)C[C@]2(C)[C@@]1(O)C(=O)CO", "note": "[DEX, dexamethasone]", "values": [
      {"measurement": "increase of GRE activity (luciferase)", "setting": "[1]", "value": 40, "unit": "fold"},
      {"measurement": "co-immunoprecipitation of GR and ERG", "setting": "[2]", "value": "enhanced"},
      {"measurement": "interaction between MR and ERG (PCA)", "setting": "[3]", "value": "stimulated strong interactions"},
      {"measurement": "luciferase activity (PCA), GR-ERG interaction", "setting": "[4]", "value": "highly significant increases"},
      {"measurement": "time of peak of GR-ERG signals after stimulation (PCA)", "setting": "[4]", "value": "peaked earlier"}
    ]},
    {"compound": "CC(C)(C(=O)c1cccnc1)c1cccnc1", "note": "[metyrapone]", "values": [
      {"measurement": "tumor growth rates", "setting": "[5]", "value": "clear and statistically significant decrease"},
      {"measurement": "γH2AX in tumors", "setting": "[6]", "value": "elevated"}
    ]}
  ]
}
